The source of these data is patent US9045498B2, “Hexahydropyrano[3,4-d][1,3]thiazin-2-amine compounds” (Pfizer Inc., priority 2012, dated 2015).

The target in one experiment is BACE1 enzyme (Homo sapiens (Human), UniProt P56817). The experiment can be described thus: BACE1 Cell-Free Assay (fluorescence polarization). The class given is biochemical. As to conditions: geometric mean of 2-3 determinations; pH 4.5, 3 hours at 37° C. The text has this: This assay measures the inhibition of the beta-secretase enzyme as it cleaves a non-native peptide.
A synthetic APP substrate that can be cleaved by beta-secretase having N-terminal biotin and made fluorescent by the covalent attachment of Oregon Green at the Cys residue is used to assay beta-secretase activity in the presence or absence of the inhibitory compounds. […] The BACE1 enzyme is affinity purified material from conditioned media of CHO-K1 cells that have been transfected with a soluble BACE construct (BACE1deltaTM96His). Compounds are incubated in a ½ log dose response curve from a top concentration of 100 μM with BACE1 enzyme and the biotinylated fluorescent peptide in 384-well black plates (Thermo Scientific #4318). BACE1 is at a final concentration of 0.1 nM with a final concentration of peptide substrate of 150 nM in a reaction volume of 30 μL assay buffer (100 mM sodium acetate, pH 4.5 (brought to pH with acetic acid), and 0.001% Tween-20). Plates are covered and incubated for 3 hours at 37° C. The reaction is stopped with the addition of 30 μL of 1.5 μM Streptavidin (Pierce, #21125). After a 10 minute incubation at room temperature, plates are read on a PerkinElmer EnVision for fluorescence polarization (Ex485 nm/Em530 nm). The activity of the beta-secretase enzyme is detected by changes in the fluorescence polarization that occur when the substrate is cleaved by the enzyme.
Background: Fluorescence polarisation rises when a labelled molecule tumbles more slowly, as on binding a larger partner.

For experiment [1], the system named is sAPPβ levels in H4 human neuroglioma cells over-expressing the wild-type human APP695. The experiment in a line: Whole Cell Assay (In Vitro sAPPb Assay). The class given is cell-based. As to conditions: 18 hours treatment, geometric mean of 2-3 determinations (4-7 where marked d). Here is the method:
Whole Cell Assay (In Vitro sAPPb Assay):
H4 human neuroglioma cells over-expressing the wild-type human APP695 are treated for 18 hours with compound in cell growth media having a final concentration 1% DMSO. sAPPβ levels are measured using either TMB-ELISA or Pierce SuperSignal ELISA Pico Chemiluminescent Substrate (Pierce 37069) with capture APP N-terminal antibody (Affinity BioReagents, OMA1-03132), wild-type sAPPβ specific reporter p192 (Elan), and tertiary anti rabbit-HRP (GE Healthcare).

A further experiment deals with BACE2 enzyme (Homo sapiens (Human), UniProt Q9Y5Z0). The experiment in a line: BACE2 Cell-free Assay (fluorescence polarization). It is filed as biochemical. As to conditions: pH 4.5, 3 hours at 37° C.; number of determinations per footnote a, b, d. The method, then: This assay measures the inhibition of the BACE2 enzyme as it cleaves a non-native peptide. A synthetic substrate that can be cleaved by BACE2 having N-terminal biotin and made fluorescent by the covalent attachment of Oregon Green at the Cys residue is used to assay BACE2 activity in the presence or absence of the inhibitory compounds. The substrate is Biotin-[…]-C(Oregon green)-KK-OH. The BACE2 enzyme is available from Enzo Life Sciences (Cat # BML-SE550). Compounds are incubated in a ½ log dose response curve from a top concentration of 100 μM with BACE2 enzyme and the biotinylated fluorescent peptide in 384-well black plates (Thermo Scientific #4318). BACE2 is at a final concentration of 2.5 nM with a final concentration of peptide substrate of 150 nM in a reaction volume of 30 μL assay buffer (100 mM sodium acetate, pH 4.5 (brought to pH with acetic acid), and 0.001% Tween-20). Plates are covered and incubated for 3 hours at 37° C. The reaction is stopped with the addition of 30 μL of 1.5 μM Streptavidin (Pierce, #21125). After a 10 minute incubation at room temperature, plates are read on a Perkin Elmer EnVision for fluorescence polarization (Ex485 nm/Em530 nm). The activity of the beta-secretase enzyme is detected by changes in the fluorescence polarization that occur when the substrate is cleaved by the enzyme.
BACE2 enzyme, sequence (Q9Y5Z0 63-518): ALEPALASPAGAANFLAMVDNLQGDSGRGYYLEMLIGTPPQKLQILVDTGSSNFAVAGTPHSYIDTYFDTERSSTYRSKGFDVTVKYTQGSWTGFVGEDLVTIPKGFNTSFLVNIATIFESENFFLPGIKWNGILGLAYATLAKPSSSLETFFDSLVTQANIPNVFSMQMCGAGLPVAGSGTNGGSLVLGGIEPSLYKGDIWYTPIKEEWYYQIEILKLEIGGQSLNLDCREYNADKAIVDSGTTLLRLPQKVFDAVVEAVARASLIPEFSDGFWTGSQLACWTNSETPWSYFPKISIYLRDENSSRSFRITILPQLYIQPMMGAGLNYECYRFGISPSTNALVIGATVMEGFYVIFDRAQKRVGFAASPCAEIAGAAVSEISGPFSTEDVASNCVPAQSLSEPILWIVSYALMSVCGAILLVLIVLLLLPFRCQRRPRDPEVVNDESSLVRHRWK

BACE1 enzyme, sequence (P56817 46-457): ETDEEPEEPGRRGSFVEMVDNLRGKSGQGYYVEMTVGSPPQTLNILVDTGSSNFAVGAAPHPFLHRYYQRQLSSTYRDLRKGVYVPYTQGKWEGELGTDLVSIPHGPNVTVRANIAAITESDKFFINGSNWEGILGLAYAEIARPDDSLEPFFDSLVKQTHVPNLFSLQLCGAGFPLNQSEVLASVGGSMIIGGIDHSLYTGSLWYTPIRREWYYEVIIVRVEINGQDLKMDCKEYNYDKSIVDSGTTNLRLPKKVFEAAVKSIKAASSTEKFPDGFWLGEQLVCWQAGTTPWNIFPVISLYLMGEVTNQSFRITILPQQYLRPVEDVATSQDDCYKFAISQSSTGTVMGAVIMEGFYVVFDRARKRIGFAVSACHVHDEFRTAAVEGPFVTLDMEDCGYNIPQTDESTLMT

On to `N#Cc1cc([C@]23CO[C@@H](COCc4ccccc4)C[C@H]2CSC(N)=N3)c(F)cc1F` [Example 2, 5-[(4aR,6R,8aS)-2-Amino-6-[(benzyloxy)methyl]-4,4a,5,6-tetrahydropyrano[3,4-d][1,3]thiazin-8a(8H)-yl]-2,4-difluorobenzonitrile], for which the half-inhibitory concentration (IC50) (commonly the concentration needed to halve the response being measured) on BACE1 enzyme is 445 nM; in experiment [1] it was 74 nM.

For `COC[C@H]1C[C@H]2CSC(N)=N[C@@]2(c2cc(C#N)c(F)cc2F)CO1` [Example 5, 5-[(4aR,6R,8aS)-2-Amino-6-(methoxymethyl)-4,4a,5,6-tetrahydropyrano[3,4-d][1,3]thiazin-8a(8H)-yl]-2,4-difluorobenzonitrile], the IC50 in experiment [1] was determined as 46.5 nM.

`C[C@H]1C[C@H]2CSC(N)=N[C@@]2(c2cccc(C#N)c2)CO1` [Example 7, 3-[(4aR,6S,8aS)-2-Amino-6-methyl-4,4a,5,6-tetrahydropyrano[3,4-d][1,3]thiazin-8a(8H)-yl]benzonitrile]: the IC50 amounted to 1780 nM on BACE1 enzyme and 119 nM in experiment [1].

On to `Cc1cc([C@H]2C[C@H]3[C@@H](C)SC(N)=N[C@@]3(c3cc(C#N)ccc3F)CO2)on1` [Example 17, 3-[(4R,4aR,6R,8aS)-2-Amino-4-methyl-6-(3-methyl-1,2-oxazol-5-yl)-4,4a,5,6-tetrahydropyrano[3,4-d][1,3]thiazin-8a(8H)-yl]-4-fluorobenzonitrile], for which the IC50 against BACE1 enzyme is 82 nM; in experiment [1], 11.4 nM.

As for `N#Cc1cc([C@]23CO[C@@H](CF)C[C@H]2CSC(N)=N3)c(F)cc1F` [Example 4, 5-[(4aR,6R,8aS)-2-Amino-6-(fluoromethyl)-4,4a,5,6-tetrahydropyrano[3,4-d][1,3]thiazin-8a(8H)-yl]-2,4-difluorobenzonitrile], the 50% inhibitory concentration (IC50) is 93 nM in experiment [1] and 2520 nM against BACE2 enzyme.

For the compound `COC[C@@H](C)NCc1ccc(F)c([C@]23CO[C@@H](c4cnn(C)c4)C[C@H]2CSC(N)=N3)c1` (relative stereo) [Example 18, (4aR*,6R*,8aS*)-8a-[2-Fluoro-5-({[(2R)-1-methoxypropan-2-yl]amino}methyl)phenyl]-6-(1-methyl-1H-pyrazol-4-yl)-4,4a,5,6,8,8a-hexahydropyrano[3,4-d][1,3]thiazin-2-amine], the IC50 at BACE1 enzyme was 36 nM; in experiment [1], 0.545 nM; on BACE2 enzyme, 20 nM.

For `N#Cc1ccc(F)c([C@]23CO[C@@H](C4CC4)C[C@H]2CSC(N)=N3)c1` [Example 13, 3-[(4aR,6R,8aS)-2-Amino-6-cyclopropyl-4,4a,5,6-tetrahydropyrano[3,4-d][1,3]thiazin-8a(8H)-yl]-4-fluorobenzonitrile], the figures for the IC50 (against BACE1 enzyme; in experiment [1]) were 342 nM and 47.6 nM, respectively.

On to `C[C@H]1C[C@H]2[C@@H](CF)SC(N)=N[C@@]2(c2cc(CNCC(F)(F)F)ccc2F)CO1` [Example 19, (4S,4aR,6S,8aS)-4-(Fluoromethyl)-8a-(2-fluoro-5-{[(2,2,2-trifluoroethyl)amino]methyl}phenyl)-6-methyl-4,4a,5,6,8,8a-hexahydropyrano[3,4-d][1,3]thiazin-2-amine], for which the IC50 on BACE1 enzyme was found to be 150 nM; in experiment [1], 30.4 nM.

Take `C[C@H]1C[C@H]2CSC(N)=N[C@@]2(c2cc(CNCC(F)(F)F)c(F)cc2F)CO1` [Example 9, (4aR,6S,8aS)-8a-(2,4-Difluoro-5-{[(2,2,2-trifluoroethyl)amino]methyl}phenyl)-6-methyl-4,4a,5,6,8,8a-hexahydropyrano[3,4-d][1,3]thiazin-2-amine]: the half-maximal inhibitory concentration (IC50) came out at 76 nM against BACE1 enzyme and 8.94 nM in experiment [1].

Regarding `NC1=N[C@@]2(c3cc(CNCC(F)(F)F)c(F)cc3F)CO[C@@H](CF)C[C@H]2CS1` [Example 8, (4aR,6R,8aS)-8a-(2,4-Difluoro-5-{[(2,2,2-trifluoroethyl)amino]methyl}phenyl)-6-(fluoromethyl)-4,4a,5,6,8,8a-hexahydropyrano[3,4-d][1,3]thiazin-2-amine], in experiment [1], half-maximal inhibition (IC50) was put at 5.9 nM.

Take `Cc1coc([C@H]2C[C@H]3CSC(N)=N[C@@]3(c3cc(C#N)ccc3F)CO2)n1` [Example 11, 3-[(4aR,6R,8aS)-2-Amino-6-(4-methyl-1,3-oxazol-2-yl)-4,4a,5,6-tetrahydropyrano[3,4-d][1,3]thiazin-8a(8H)-yl]-4-fluorobenzonitrile]: the figures for the IC50 (at BACE1 enzyme; in experiment [1]) were 107 nM and 12.1 nM, respectively.

Regarding `NC1=N[C@@]2(c3cc(CNCC(F)(F)F)ccc3F)CO[C@@H](CF)C[C@H]2CS1` [Example 15, (4aR,6R,8aS)-6-(Fluoromethyl)-8a-(2-fluoro-5-{[(2,2,2-trifluoroethyl)amino]methyl}phenyl)-4,4a,5,6,8,8a-hexahydropyrano[3,4-d][1,3]thiazin-2-amine], the values for the IC50 (on BACE1 enzyme; in experiment [1]; against BACE2 enzyme) were 376 nM, 8.05 nM and 423 nM, respectively.

As to `COc1cc(F)c([C@]23CO[C@@H](COCc4ccccc4)C[C@H]2CSC(N)=N3)cc1C#N` [Example 1, 5-[(4aR,6R,8aS)-2-Amino-6-[(benzyloxy)methyl]-4,4a,5,6-tetrahydropyrano[3,4-d][1,3]thiazin-8a(8H)-yl]-4-fluoro-2-methoxybenzonitrile], the IC50 on BACE1 enzyme worked out at 1220 nM; in experiment [1], 53.5 nM.

Take `C[C@H]1C[C@H]2CSC(N)=N[C@@]2(c2cc(C#N)ccc2F)CO1` [Example 14, 3-[(4aR,6S,8aS)-2-Amino-6-methyl-4,4a,5,6-tetrahydropyrano[3,4-d][1,3]thiazin-8a(8H)-yl]-4-fluorobenzonitrile]: the figures for the IC50 (on BACE1 enzyme; in experiment [1]) were 967 nM and 49.6 nM, respectively.

On to `C[C@H]1C[C@H]2CSC(N)=N[C@@]2(c2cc(C#N)ccc2Cl)CO1` [Example 6, 3-[(4aR,6S,8aS)-2-Amino-6-methyl-4,4a,5,6-tetrahydropyrano[3,4-d][1,3]thiazin-8a(8H)-yl]-4-chlorobenzonitrile], for which the figures for the IC50 (on BACE1 enzyme; in experiment [1]) were 2330 nM and 195 nM, respectively.

For the compound `N#Cc1cc([C@]23CO[C@@H](CO)C[C@H]2CSC(N)=N3)c(F)cc1F` [Example 3, 5-[(4aR,6R,8aS)-2-Amino-6-(hydroxymethyl)-4,4a,5,6-tetrahydropyrano[3,4-d][1,3]thiazin-8a(8H)-yl]-2,4-difluorobenzonitrile], the IC50 amounted to 5550 nM against BACE1 enzyme and 393 nM in experiment [1].

In the case of `Cn1cc([C@H]2C[C@H]3CSC(N)=N[C@@]3(c3cc(C#N)ccc3F)CO2)cn1` [Example 12, 3-[(4aR,6R,8aS)-2-Amino-6-(1-methyl-1H-pyrazol-4-yl)-4,4a,5,6-tetrahydropyrano[3,4-d][1,3]thiazin-8a(8H)-yl]-4-fluorobenzonitrile], the IC50 against BACE1 enzyme stood at 60 nM; in experiment [1], 6.43 nM.

As to `Cc1cc([C@H]2C[C@H]3CSC(N)=N[C@@]3(c3cc(C#N)ccc3F)CO2)on1` [Example 10, 3-[(4aR,6R,8aS)-2-Amino-6-(3-methyl-1,2-oxazol-5-yl)-4,4a,5,6-tetrahydropyrano[3,4-d][1,3]thiazin-8a(8H)-yl]-4-fluorobenzonitrile], the IC50 at BACE1 enzyme was 64 nM; in experiment [1] it was 10.9 nM.

In the case of `C[C@H]1C[C@H]2[C@@H](CF)SC(N)=N[C@@]2(c2cc(CNCC(F)(F)F)c(F)cc2F)CO1` [Example 20, (4S,4aR,6S,8aS)-8a-(2,4-Difluoro-5-{[(2,2,2-trifluoroethyl)amino]methyl}phenyl)-4-(fluoromethyl)-6-methyl-4,4a,5,6,8,8a-hexahydropyrano[3,4-d][1,3]thiazin-2-amine], the IC50 stood at 68 nM against BACE1 enzyme and 35.7 nM in experiment [1].
